Assay results from patent US20220408724A1, “METHOD FOR CONTROLLING METABOLISM OF BRANCHED FATTY ACID” (KAO CORPORATION, priority 2019, published 2022).

Columns and labels:
Format in all cases: cell-based
Moraxella osloensis [1] = experiment: Examination example: suppression of metabolite 4-methyl-3-hexenoic acid, components (a) and (b)/(b′)
Method: (§1) After culture on fabric prepared in the same manner as in the above (1), 3 ml of methanol was added, and extraction was carried out under ultrasonic irradiation for 30 minutes (20° C.). The extraction liquid was mixed with (a 1000 ppm methanol solution of) an ADAM reagent of Funakoshi Co., Ltd. at 1:1 (volume ratio) and left overnight under room temperature and dark place conditions. After that, 4-methyl-3-hexenoic acid as a metabolite from 14-methylhexadecanoic acid was quantified by HPLC. The quantification conditions are as follows.
Eluent: acetonitrile 61% (v/v), water 39% (v/v) Column temperature: 40° C. Sample injection volume: 10 μL Flow rate: 1.0 mL/min
The production amount of 4-methyl-3-hexenoic acid after culture on the fabric to which the metabolism controlling agent was added was quantified, and the ratio of the production amount to that of 4-methyl-3-hexenoic acid in the case of adding no metabolism controlling agent (control) was calculated as a metabolite suppression rate (%). The higher a numerical value thereof is, the more the metabolism is suppressed. Note that the metabolite suppression rate was determined by the following formula. In references 1-1, 2-1, 3-1 and 4-1, which are controls, the metabolite suppression rate is 0%.
Metabolite suppression rate(%)=100×[(D−C)/D] • C: production amount of metabolite of reference or examination example (μg/fabric g) • D: production amount of metabolite of control (μg/fabric g)

Moraxella osloensis [2] = experiment: Examination example: measurement of viable bacterial count
Method: (§2) After culture on fabric prepared in the same manner as in the above (1), 9 mL of an LP diluent (manufactured by NIHON PHARMACEUTICAL CO., LTD.) was added, and the extraction of the bacteria was carried out under ultrasound for 10 minutes. The extraction liquid was poured and mixed to an SCD-LP agar medium (NIHON PHARMACEUTICAL CO., LTD.), and culture was thereafter carried out at 37° C.; for a day. The number of colonies obtained on each piece of the fabric was counted, and a common logarithm value thereof was measured as the viable bacterial count. […] In addition, the […], the more the viable bacterial count of the microorganism is maintained.

Moraxella osloensis [3] = experiment: Examination example: suppression of metabolism of 14-methylhexadecanoic acid, components (a) and (b)/(b′); settings: for Metabolism of branched fatty acid: Residual amount (μg/fabric g): 14-methylhexadecanoic acid
Method: The suppression of metabolism of 14-methylhexadecanoic acid by bacteria of the genus Moraxella and the suppression of a metabolite therefrom were tested in the following manner.
Moraxella osloensis (strain isolated from clothing) was precultured on an SCD-LP agar medium (NIHON PHARMACEUTICAL CO., LTD.) at 37° C.; for 24 hours, and a bacterial suspension of 10^6 (CFU/ml) was prepared by using an NB liquid medium (Difco) diluted to 1/20 with ion exchange water.
A methanol solution in which 14-methylhexadecanoic acid (SIGMA-ALDRICH) was dissolved was added dropwise to 3 cm×3 cm pieces of sterilized plain-weave cotton fabric to make it adhered to the fabric. The adhesion amount of 14-methylhexadecanoic acid was set to 10 μg per piece of the plain-weave cotton fabric (100 μg/fabric g). Further, a methanol solution in which component (a) was dissolved, and then, a methanol solution in which component (b) or (b′) was dissolved were added dropwise to the fabric to which 14-methylhexadecanoic acid adhered, and it was thereafter dried for an hour. This fabric was placed in a sterilized screw tube bottle No. 3 (Maruemu Corporation) and 100 μl of the bacterial suspension was inoculated thereto, and culture was carried out under 37° C.; conditions for 21 hours.
(§3) 3 ml of methanol was added to the screw tube bottle after culture, and extraction was carried out under ultrasonic irradiation for 30 minutes (20° C.). The extraction liquid was mixed with a (trimethylsilyl)diazomethane hexane solution (FUJIFILM Wako Pure Chemical Corporation) at 9:1 (volume ratio) and left overnight under room temperature and dark place conditions. After that, 14-methylhexadecanoic acid remaining on the fabric was quantified by GC. The quantification conditions for GC are as follows. • GC: Agilent 6890N • GC column: Agilent DB-1 30 m×250 μm×0.25 μm • Temperature rise condition: 50° C. (held for 3 minutes)-(10° C./min)-300° C. (held for 5 minutes) • Sample injection volume: 1 μl • Split ratio: 1:12 • Detector: FID
(§4) The residual amount of 14-methylhexadecanoic acid after culture on the fabric to which each metabolism controlling agent was added was quantified, and the ratio of the residual amount to that of 14-methylhexadecanoic acid in the case of adding no metabolism controlling agent (control) was calculated as a metabolism suppression rate (%). The higher a numerical value thereof is, the more the metabolism is suppressed. Note that the metabolism suppression rate was determined by the following formula:
Metabolism suppression rate(%)=[1−(100−A)/(100−B)]×100 • A: residual amount of 14-methylhexadecanoic acid of reference or examination example (μg/fabric g) • B: residual amount of 14-methylhexadecanoic acid of control (μg/fabric g)
A control is an example in which none of component (a), (b) or (b′) is added, and references 1-1, 2-1, 3-1 and 4-1 qualify as this (the same applies hereinafter). In these controls, the metabolism suppression rate is 0′.

Micrococcus aloeverae [4] = experiment: Suppression of metabolite 2-methylbutanoic acid from 14-methylhexadecanoic acid; settings: agent 250 μg/fabric g
Method: as §1
The production amount of 4-methyl-3-hexenoic acid after culture on the fabric to which each metabolism controlling agent was added was quantified, and the ratio of the production amount to that of 4-methyl-3-hexenoic acid in the case of adding no metabolism controlling agent (control) was calculated as a metabolite suppression rate (%). The higher a numerical value thereof is, the more the metabolism is suppressed. Note that the metabolite suppression rate was determined by the following formula:
Metabolite suppression rate(%)=100×[(D−C)/D] • C: production amount of metabolite of example or comparative example (μg/fabric g) • D: production amount of metabolite of control (μg/fabric g)
(§5) The metabolism of 14-methylhexadecanoic acid by bacteria of the genus Micrococcus was tested in the same manner as in example 1.
(§6) In this example, Micrococcus aloeverae (strain isolated from clothing) was used as a microorganism.
(§7) Further, in this example, a bacterial suspension of 10^7 (CFU/ml) prepared by using an SCD liquid medium (NIHON PHARMACEUTICAL CO., LTD.) diluted to 1/10 with ion exchange water was used as a bacterial suspension.
Further, in this example, 2-methylbutanoic acid was quantified as a metabolite from 14-methylhexadecanoic acid, and the metabolite suppression rate was determined in the same manner as in example 1.
(§8) Note that, in this example, C12OH (1-dodecanol) was used as the metabolism controlling agent.

Micrococcus aloeverae [5] = experiment: Measurement of viable bacterial count on fabric; settings: agent 250 μg/fabric g
Method: as §2, §5, §6, §7, §8

Micrococcus aloeverae [6] = experiment: Suppression of metabolism of 14-methylhexadecanoic acid on cotton fabric; settings: agent 250 μg/fabric g
Method: A methanol solution in which 14-methylhexadecanoic acid (SIGMA-ALDRICH) was dissolved was added dropwise to 3 cm×3 cm pieces of sterilized plain-weave cotton fabric to make it adhered to the fabric. The adhesion amount of 14-methylhexadecanoic acid was set to 10 μg per piece of the plain-weave cotton fabric (100 μg/fabric g).
Further, a methanol solution in which each metabolism controlling agent was dissolved was prepared and added dropwise to the fabric to which 14-methylhexadecanoic acid adhered, and it was thereafter dried for an hour. This fabric was placed in a sterilized screw tube bottle No. 3 (Maruemu Corporation) and 100 μl of the bacterial suspension was inoculated thereto, and culture was carried out under 37° C.; conditions for 21 hours.
as §3, with “7890A” for “6890N”
as §4, with “the” for “each”
Metabolism suppression rate(%)=[1−(100−A)/(100−B)]×100 • A: residual amount of 14-methylhexadecanoic acid of example or comparative example (μg/fabric g) • B: residual amount of 14-methylhexadecanoic acid of control (μg/fabric g)
as §5, §6, §7, §8

Row | Compound | Product of metabolism of branched fatty acid: Metabolite suppression rate (%) (Moraxella osloensis [1]; single agent 1 μg/fabric g) | Product of metabolism of branched fatty acid: Production amount (μg/fabric g) (Moraxella osloensis [1]; single agent 1 μg/fabric g) | Product of metabolism of branched fatty acid: Metabolite suppression rate (%) (Moraxella osloensis [1]; single agent 2 μg/fabric g) | Product of metabolism of branched fatty acid: Production amount (μg/fabric g) (Moraxella osloensis [1]; single agent 2 μg/fabric g) | Product of metabolism of branched fatty acid: Metabolite suppression rate (%) (Moraxella osloensis [1]; single agent 5 μg/fabric g) | Product of metabolism of branched fatty acid: Production amount (μg/fabric g) (Moraxella osloensis [1]; single agent 5 μg/fabric g) | Viable bacterial count (Log (cfu/fabric cm^2)) (Moraxella osloensis [2]; single agent 1 μg/fabric g) | Viable bacterial count (Log (cfu/fabric cm^2)) (Moraxella osloensis [2]; single agent 2 μg/fabric g) | Viable bacterial count (Log (cfu/fabric cm^2)) (Moraxella osloensis [2]; single agent 5 μg/fabric g) | Metabolism of branched fatty acid: Residual amount (μg/fabric g) (Moraxella osloensis [3]; single agent 1 μg/fabric g) | Metabolism of branched fatty acid: Residual amount (μg/fabric g) (Moraxella osloensis [3]; single agent 2 μg/fabric g) | Metabolism of branched fatty acid: Residual amount (μg/fabric g) (Moraxella osloensis [3]; single agent 5 μg/fabric g) | Metabolism of branched fatty acid: Metabolism suppression rate (%) (Moraxella osloensis [3]; single agent 1 μg/fabric g) | Metabolism of branched fatty acid: Metabolism suppression rate (%) (Moraxella osloensis [3]; single agent 2 μg/fabric g) | Metabolism of branched fatty acid: Metabolism suppression rate (%) (Moraxella osloensis [3]; single agent 5 μg/fabric g) | further results
1 | Oc1cc(Cl)ccc1Oc1ccc(Cl)cc1 [Diclosan, 4-4′-dichloro-2-hydroxydiphenyl ether] | 5% | 4.2 μg/fabric g | 14% | 3.8 μg/fabric g | 41% | 2.6 μg/fabric g | 6.2 Log (cfu/fabric cm^2) | 6.0 Log (cfu/fabric cm^2) | 5.1 Log (cfu/fabric cm^2) | 43 μg/fabric g | 46 μg/fabric g | 56 μg/fabric g | 7% | 11% | 27% | –
2 | Oc1cc(Cl)ccc1Oc1ccc(Cl)cc1Cl [Triclosan, 2,4,4′-trichloro-2′-hydroxydiphenyl ether] | 5% | 4.2 μg/fabric g | 7% | 4.1 μg/fabric g | – | – | 6.2 Log (cfu/fabric cm^2) | 6.0 Log (cfu/fabric cm^2) | – | 38 μg/fabric g | 44 μg/fabric g | – | −2% | 8% | – | Viable bacterial count (Log (cfu/fabric cm^2)) (Moraxella osloensis [2]; single agent 0.5 μg/fabric g): 6.2 Log (cfu/fabric cm^2); Metabolism of branched fatty acid: Residual amount (μg/fabric g) (Moraxella osloensis [3]; single agent 0.5 μg/fabric g): 43 μg/fabric g; Metabolism of branched fatty acid: Metabolism suppression rate (%) (Moraxella osloensis [3]; single agent 0.5 μg/fabric g): 6%
3 | N#CC(C#N)=NNc1cccc(Cl)c1 [CCCP, carbonylcyanide-m-chlorophenylhydrazone] | – | – | 25% | 3.3 μg/fabric g | 36% | 2.8 μg/fabric g | – | 6.1 Log (cfu/fabric cm^2) | 5.5 Log (cfu/fabric cm^2) | – | 44 μg/fabric g | 56 μg/fabric g | – | 8% | 28% | –
4 | CCCCCCCCCCCCCO [Example C13OH, 1-tridecanol] | – | – | – | – | – | – | – | – | – | – | – | – | – | – | – | Metabolite suppression rate (%) (Micrococcus aloeverae [4]): 59%; Bacterial count (Log (cfu/fabric cm^2)) (Micrococcus aloeverae [5]): 6.7 Log (cfu/fabric cm^2); Metabolism suppression rate (%) (Micrococcus aloeverae [6]): 41%
5 | C/C=C/C/C=C/CCC(=O)[C@H]1O[C@H]1C(N)=O [Cerulenin, [2R,3S]-2,3-epoxy-4-oxo-7,10-trans,trans-dodecanoic acid amide] | – | – | – | – | 2% | 4.3 μg/fabric g | – | – | 6.1 Log (cfu/fabric cm^2) | – | – | 39 μg/fabric g | – | – | 0% | Product of metabolism of branched fatty acid: Metabolite suppression rate (%) (Moraxella osloensis [1]; single agent 10 μg/fabric g): 9%; Product of metabolism of branched fatty acid: Production amount (μg/fabric g) (Moraxella osloensis [1]; single agent 10 μg/fabric g): 4.0 μg/fabric g; Product of metabolism of branched fatty acid: Metabolite suppression rate (%) (Moraxella osloensis [1]; single agent 20 μg/fabric g): 11%; Product of metabolism of branched fatty acid: Production amount (μg/fabric g) (Moraxella osloensis [1]; single agent 20 μg/fabric g): 3.9 μg/fabric g; Viable bacterial count (Log (cfu/fabric cm^2)) (Moraxella osloensis [2]; single agent 10 μg/fabric g): 6.3 Log (cfu/fabric cm^2); Viable bacterial count (Log (cfu/fabric cm^2)) (Moraxella osloensis [2]; single agent 20 μg/fabric g): 6.3 Log (cfu/fabric cm^2); Metabolism of branched fatty acid: Residual amount (μg/fabric g) (Moraxella osloensis [3]; single agent 10 μg/fabric g): 41 μg/fabric g; Metabolism of branched fatty acid: Residual amount (μg/fabric g) (Moraxella osloensis [3]; single agent 20 μg/fabric g): 48 μg/fabric g; Metabolism of branched fatty acid: Metabolism suppression rate (%) (Moraxella osloensis [3]; single agent 10 μg/fabric g): 3%; Metabolism of branched fatty acid: Metabolism suppression rate (%) (Moraxella osloensis [3]; single agent 20 μg/fabric g): 15%
